Data from US20090075941A1, “TREATING NEOPLASMS” (THE UAB RESEARCH FOUNDATION, priority 2006, published 2009).

Tests used:
[1] = Tumor uptake of Tc99m-medronate, biodistribution; format: in vivo; conditions: nude mice, i.v.
Experimental: Tumor uptake of Tc99m-medronate. To investigate accumulation of the bone scanning agent (Tc99m-medronate) into the subcutaneous tumors, nude mice were first inoculated subcutaneously with AB-12 or MDA-MB-231 cells (10^6 cells in 100 μl of sterile PBS) and the tumors were allowed to form for 3-4 weeks. Tc99m-medronate (MDP-Bracco™; Bracco Diagnostics Inc.; Princeton, N.J.) was then injected into the tail veins of the mice (˜800-1000 μCi per mouse) in 100 μl. High-resolution pinhole SPECT/CT imaging studies (X-SPECT system, GammaMedica, Inc.; Northridge, Calif.) and biodistribution analyses were performed in nude mice with xenografted rumors to measure in vivo tumor retention of Tc99 medronate following i.v. injection. For SPECT imaging, a total of 64 projections were acquired with a 30-sec acquisition time per projection, using a pinhole collimator with a 1-mm tungsten pinhole insert. […] The dose retention, or % Injected Dose per gram, (% ID/g) of each tissue was calculated by measuring the radioactivity in the tissue using a gamma counter, decay correcting the count rate data to the Tc99m-medronate injection time and normalizing to the total injected dose in the animal as well as the tissue weight. Each animal's dose was determined by measuring the dosing syringe (AtomLab 100 dose calibrator; Biodex Medical Systems; Shirley, N.Y.) before and after injecting the mouse. […]

J774 cells = assay: Cell viability, MTS-assay; format: cell-based; conditions: for effect of added EGTA on the bisphosphonate's growth inhibitory effect: 1 mM EGTA, N-BP 10^−4 M or clodronate 10^−3 M
Experimental: (§1) Cell viability assays. Cells were plated on 96-well plates at the density of 1×10^3 cells in 100 μl per well in normal culture medium, with or without of the indicated concentrations of the various bisphosphonate combinations and or 1 mM CaCl2, 1 mM EGTA or vehicle and cultured for 48 h. Cell viability was assessed with 3-(4,5-dimethylthiazol-2-yl)-5-(3-carboxy tetrazolium, inner salt (MTS)-assays (CellTiter Aqueous One 96 from Promega; Madison, Wis.) according to the manufacturer's instructions. For each treatment, a PBS-control group was run simultaneously on the same plate. The results for each treatment were calculated as % of the corresponding PBS-group.

[2] = tested on: unprenylated Rap1A in MDA-MB-231 breast cancer cells; assay: Western blot, unprenylated Rap1A (Example 2); format: cell-based, human; conditions: MDA-MB-231 cells, 24 h; for effect on alendronate-induced accumulation of unprenylated Rap1A: 10^−4 M alendronate plus clodronate 10^−3 M, geranylgeraniol 25 μM, or cytokines/LPS
Experimental: (§2) Western blot analysis. Cells were cultured on 6-well plates in normal culture medium until near confluency. The cells were then rinsed with sterile PBS and cultured for further 24 h in serum-tree culture medium, in the presence or absence of the indicated bisphosphonates. Some cultures were also treated with 25 μM geranylgeraniol (cold, all trans), 1.0 μg/ml LPS (Sigma; St. Louis, Mo.) 10 ng/ml IL-1β (R&D Systems; Minneapolis, Minn.) or TNF-α (R&D Systems). To study bisphosphonate effects on connexin-43 expression, the cells were cultured for 24 h in serum-free culture medium in the presence of the indicated bisphosphonates or PBS as a vehicle control. Culture medium was then discarded, the cells were quickly lysed and prepared into Western blot samples, as described in Merrell et al. (2000) Breast Cancer Res. Treat. 81, 231-241. After boiling the supernatants in reducing sodium docedyl sulfate (SDS) sample buffer, equal amounts of protein (˜20-50 μg) were loaded per lane and the samples were electrophoresed on 10% SDS polyacrylamide gel and transferred to a nitrocellulose membrane. To detect, unprenylated Rap1A, the blots were incubated overnight at 4° C. with the antibody SC-1482 (Santa Cruz Technology (San Diego, Calif.)), diluted 1:1000 in Tris-buffered saline, 0.1% (v/v) Tween-20 (TEST), and then with peroxidase-conjugated anti-goat serum (Pierce; Rockford, Ill.), diluted 1:1000 in TBST. Total Rap1 was detected from stripped blots in a similar fashion, with the antibody SC-65 (Santa Cruz Technology). The phosphorylation status of p38 was investigated using anti-phospho-p38 (Cell Signaling; Beverly, Mass.) and after stripping of the membrane, with anti-total p38 antibodies (Cell Signaling), according to the manufacturer's instructions. Expression of connexin-43 was detected with a rabbit anti-connexin-43 antibody (Zymed Laboratories, Inc.; San Francisco, Calif.), diluted 1:1000 in TBST. The protein bands were visualized by chemiluminescence using SuperSignal West Pico ECL kit (Pierce Biotechnology, Inc.; Rockford, Ill.).

AB-12 cells = assay: Cell viability, MTS-assay; format: cell-based, mouse; conditions: for effect of added Ca2+ on the bisphosphonate's growth inhibitory effect: 1 mM CaCl2, N-BP 10^−4 M or p-BP 10^−3 M
Experimental: as §1

[3] = tested on: unprenylated Rap1A in AB-12 mesothelioma cells; assay: Western blot, unprenylated Rap1A (Example 2); format: cell-based, mouse; conditions: AB-12 cells, 24 h; for effect on nitrogen-containing bisphosphonate-induced accumulation of unprenylated Rap1A: pyrophosphate-resembling : nitrogen-containing bisphosphonate ratio 100:1
Experimental: as §2

MDA-MB-231 cells = assay: Cell viability, MTS-assay; format: cell-based, human; conditions: for effect of added Ca2+ on the bisphosphonate's growth inhibitory effect: 1 mM CaCl2, N-BP 10^−4 M or p-BP 10^−3 M
Experimental: as §1

[4] = tested on: p38 phosphorylation in MDA-MB-231 cells; assay: Western blot, phosphorylation of p38 (Example 2); format: cell-based, human; conditions: 10^−3 M
Experimental: as §2, with “To detect, unprenylated Rap1A, the blots were incubated overnight at 4° C. with the antibody SC-1482 (Santa Cruz Technology (San Diego, Calif.)), diluted 1:1000 in Tris-buffered saline, 0.1% (v/v) Tween-20 (TEST), and then with peroxidase-conjugated anti-goat serum (Pierce; Rockford, Ill.), diluted 1:1000 in TBST.” left out, “The phosphorylation status of p38 was investigated using anti-phospho-p38 (Cell Signaling; Beverly, Mass.) and after stripping of the membrane, with anti-total p38 antibodies (Cell Signaling), according to the manufacturer's instructions.” left out, “The protein bands were visualized by chemiluminescence using SuperSignal West Pico ECL kit (Pierce Biotechnology, Inc.; Rockford, Ill.).” left out

[5] = tested on: p38 phosphorylation in AB-12 cells; assay: Western blot, phosphorylation of p38 (Example 2); format: cell-based, mouse; conditions: excess, added simultaneously
Experimental: as §2, with “To detect, unprenylated Rap1A, the blots were incubated overnight at 4° C. with the antibody SC-1482 (Santa Cruz Technology (San Diego, Calif.)), diluted 1:1000 in Tris-buffered saline, 0.1% (v/v) Tween-20 (TEST), and then with peroxidase-conjugated anti-goat serum (Pierce; Rockford, Ill.), diluted 1:1000 in TBST.” left out, “The phosphorylation status of p38 was investigated using anti-phospho-p38 (Cell Signaling; Beverly, Mass.) and after stripping of the membrane, with anti-total p38 antibodies (Cell Signaling), according to the manufacturer's instructions.” left out, “The protein bands were visualized by chemiluminescence using SuperSignal West Pico ECL kit (Pierce Biotechnology, Inc.; Rockford, Ill.).” left out

## O=P(O)(O)CP(=O)(O)O [Tc99m-medronate, metal not drawn]
[1]; % dose retention in various tissues
  tissue with the highest accumulation: bones: highest proportion
[1]; tissues ~8 h after injection, % ID/g normalized to blood, P<0.05
  accumulation (% dose retention) in AB-12 mesothelioma tumors compared with MDA-MB-231 breast cancer tumors: significantly higher

## NCCCC(O)(P(=O)(O)O)P(=O)(O)O [alendronate]
J774 cells
  effect of added EGTA on the bisphosphonate's growth inhibitory effect: reversed
[2]
  accumulation of unprenylated Rap1A: dose-dependent accumulation
AB-12 cells; 1 mM EGTA, N-BP 10^−4 M
  effect of added EGTA on the bisphosphonate's growth inhibitory effect: reversed
AB-12 cells; 10^−4 M, P<0.001
  cell viability: significant decrease in cell viability
[3]
  accumulation of unprenylated Rap1A: dose-dependent accumulation
MDA-MB-231 cells; 1 mM EGTA, N-BP 10^−4 M
  effect of added EGTA on the bisphosphonate's growth inhibitory effect: reversed
MDA-MB-231 cells; 10^−4 M, P<0.001
  cell viability: significant decrease in cell viability

## O=P(O)(O)C(Cl)(Cl)P(=O)(O)O [clodronate]
J774 cells
  effect of added EGTA on the bisphosphonate's growth inhibitory effect: reversed
J774 cells; 10^−3 M alone, P<0.001 vs PBS-control
  cell viability: highest sensitivity
J774 cells; clodronate 10^−3 M + 1 mM CaCl2
  cell viability in combination with 1 mM CaCl2: toxic
[2]
  effect on alendronate-induced accumulation of unprenylated Rap1A: reduced
  accumulation of unprenylated Rap1A: no effect
[4]
  effect on zoledronate-induced (10^−4 M) p38 phosphorylation: blocked
[5]
  effect on nitrogen-containing bisphosphonate (risedronate or zoledronate)-induced p38 phosphorylation: blocked
AB-12 cells
  effect of added Ca2+ on the bisphosphonate's growth inhibitory effect: augmented
[3]
  accumulation of unprenylated Rap1A: no effect
  effect on nitrogen-containing bisphosphonate-induced accumulation of unprenylated Rap1A: completely blocked
MDA-MB-231 cells
  effect of added Ca2+ on the bisphosphonate's growth inhibitory effect: not

## CC(O)(P(=O)(O)O)P(=O)(O)O [etidronate]
[2]
  accumulation of unprenylated Rap1A: no effect
[4]
  effect on zoledronate-induced (10^−4 M) p38 phosphorylation: blocked
[5]
  effect on nitrogen-containing bisphosphonate (risedronate or zoledronate)-induced p38 phosphorylation: blocked
AB-12 cells
  effect of added Ca2+ on the bisphosphonate's growth inhibitory effect: augmented
[3]
  accumulation of unprenylated Rap1A: no effect
  effect on nitrogen-containing bisphosphonate-induced accumulation of unprenylated Rap1A: completely blocked
MDA-MB-231 cells
  effect of added Ca2+ on the bisphosphonate's growth inhibitory effect: not

## CC(C)=CCC/C(C)=C/CC/C(C)=C/CC/C(C)=C/CO [geranylgeraniol]
[2]
  effect on alendronate-induced accumulation of unprenylated Rap1A: reduced

## IL-1β: cytokine (R&D Systems), molecule completely unrelated to bisphosphonates
[2]
  effect on alendronate-induced accumulation of unprenylated Rap1A: not blocked

## TNF-α
[2]
  effect on alendronate-induced accumulation of unprenylated Rap1A: not blocked
